Results: patent publication US5459270A, “Azacyclic compounds, processes for their preparation and pharmaceutical compositions containing them” (Merck Sharp & Dohme Limited, priority 1991, dated 1995)
pIC50: −log10 of the molar value. Where a name gives a salt, the structure may show the parent alone. Read-outs that look alike come from different tables or passages of the source.

Molecular target: human neurokinin-1-receptor (NK1R) (Homo sapiens, UniProt P25103)
Assay: biochemical
Type: binding
Details: for pIC50: displacement of 125I-substance P, human NK1R in COS or CHO cells
Protocol: To express the cloned human neurokinin-1-receptor (NK1R) transiently in COS, the cDNA for the human NK1R was cloned into the expression vector pCDM9 which was derived from pCDM8 (INVITROGEN) by inserting the ampicillin resistance gene (nucleotide 1973 to 2964 from BLUESCRIPT SK+ (trademark, […], La Jolla, Calif., USA)) into the Sac II site. Transfection of 20 ug of the plasmid DNA into 10 million COS cells was achieved by electroporation in 800 μl of transfection buffer (135 mM NaCl, 1.2 mM CaCl2, 1.2 mM MgCl2, 2.4 mM K2 HPO4, 0.6 mM KH2 PO4, 10 mM glucose, 10 mM N-2-hydroxyethyl-piperazine-N'-2-ethane sulphonic acid (HEPES) pH 7.4) at 260 V and 950 μF using the IBI GENEZAPPER (trademark IBI, New Haven, Conn., USA). The cells were incubated in 10% fetal calf serum, 2 mM glutamine, 100 U/ml penicillin-streptomycin, and 90% DMEM media (GIBCO, Grand Island, N.Y., USA) in 5% CO2 at 37° C. for three days before the binding assay.
To establish a stable cell line expressing cloned human NK1R, the cDNA was subcloned into the vector pRcCMV (INVITROGEN). Transfection of 20 μg of the plasmid DNA into CHO cells was achieved by electroporation in 800 μl of transfection buffer supplemented with 0.625 mg/ml Herring sperm DNA at 300 V and 950 μF using the IBI GENEZAPPER (IBI). The transfected cells were incubated in CHO media [10% fetal calf serum, 100 U/ml penicillin-streptomycin, 2 mM glutamine, 1/500 hypoxanthine-thymidine (ATCC), 90% IMDM media (JRH BIOSCIENCES, Lenexa, Kans., USA), 0.7 mg/ml G418 (GIBCO)] in 5% CO2 at 37° C. until colonies were visible. Each colony was separated and propagated. The cell clone with the highest number of human NK1R was selected for subsequent applications such as drug screening.
The binding assay of human NK1R expressed in either COS or CHO cells is based on the use of ^125 I-substance P (^125 I-SP, from DU PONT, Boston, Mass.) as a radioactively labeled ligand which competes with unlabeled substance P or any other ligand for binding to the human NK1R. […] The tubes were incubated at 4° C. or at room temperature for 1 hour with gentle shaking. The bound radioactivity was separated from unbound radioactivity by GF/C filter (BRANDEL, Gaithersburg, Md.) which was pre-wetted with 0.1% polyethylenimine. The filter was washed with 3 ml of wash buffer (50 mM Tris pH 7.5, 5 mM MnCl2, 50 mM NaCl) three times and its radioactivity was determined by gamma counter.

Sequence of human neurokinin-1-receptor (NK1R) (P25103 whole entry): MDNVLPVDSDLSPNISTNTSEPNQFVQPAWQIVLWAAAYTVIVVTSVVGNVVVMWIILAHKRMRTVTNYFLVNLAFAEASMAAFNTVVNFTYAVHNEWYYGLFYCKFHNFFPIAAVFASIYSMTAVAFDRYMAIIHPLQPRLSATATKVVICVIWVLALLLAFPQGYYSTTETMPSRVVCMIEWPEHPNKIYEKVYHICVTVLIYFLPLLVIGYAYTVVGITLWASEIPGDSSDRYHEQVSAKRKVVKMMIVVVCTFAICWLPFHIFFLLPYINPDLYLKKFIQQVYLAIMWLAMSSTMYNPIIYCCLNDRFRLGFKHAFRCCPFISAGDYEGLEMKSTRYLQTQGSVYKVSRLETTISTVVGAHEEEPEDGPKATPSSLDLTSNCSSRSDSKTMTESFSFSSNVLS

Row | pIC50 (read-out: IC50 @ NKIR) | Structure (SMILES) | other results
1 | – | COc1ccc([N+](=O)[O-])cc1CO[C@H]1CCCN[C@H]1c1ccccc1 (relative stereo) [Example 45, cis-3-((2-Methoxy-5-nitrophenyl)methyloxy)-2-phenylpiperidine hydrochloride salt] | inhibition at 0.3 µM (1 h, read-out: % @ 300 nM (in column IC50 @ NKIR)): 42%
2 | > 8.52 | Cc1cc(C)cc(CO[C@H]2CCCN[C@H]2c2ccccc2)c1 (relative stereo) [Example 2, cis-3-((3,5-Dimethylphenyl)methyloxy)-2-phenylpiperidine hydrochloride salt] | –
3 | 6.80 | COc1ccc(CN2C(=O)CC[C@H](OCc3cc(C(F)(F)F)cc(C(F)(F)F)c3)[C@@H]2c2ccccc2)cc1 (relative stereo) [Example 27, cis-3-((3,5-Bis(trifluoromethyl)phenyl)methyloxy)-6-keto1-(4-methoxybenzyl)-2-phenyl piperidine] | –
4 | 7.85 | Cc1cc(C)cc(CO[C@H]2CCN(C)[C@H]2C(c2ccccc2)c2ccccc2)c1 (relative stereo) [Example 1, cis 2-(Diphenylmethyl)-3-(3,5-dimethylbenzyloxy)-1-methylpyrrolidine] | –
5 | 7.82 | N#CCN1CCC[C@H](OCc2cc(C(F)(F)F)cc(C(F)(F)F)c2)[C@@H]1c1ccccc1 (relative stereo) [Example 40, cis-3 ((3,5Bis(trifluoromethyl)phenyl)methyloxy)-1-cyanomethyl-2-phenylpiperidinium hydrochloride] | –
6 | 7.46 | FC(F)(F)c1cc(CO[C@H]2CCCN[C@H]2c2ccc(Cl)cc2)cc(C(F)(F)F)c1 (relative stereo) [Example 23, cis-3-((3,5-Bis(trifluoromethyl)phenyl)methyloxy)-2-(4-chlorophenyl)piperidine hydrochloride salt] | –
7 | – | Cc1cc(CO[C@H]2CCCN(C(=O)OC(C)(C)C)[C@H]2c2ccccc2)cc([Si](C)(C)C)c1 [Example 33] | pIC50 (IC50 @ NKIR): < 6.52
8 | 9.22 | COC(=O)C(C)N1CCCC(OCc2cc(C(F)(F)F)cc(C(F)(F)F)c2)C1c1ccccc1 (single isomer, unassigned) [Example 18] | –
9 | 8.30 | FC(F)(F)c1cc(CO[C@H]2CCCN[C@H]2c2cccc(Cl)c2)cc(C(F)(F)F)c1 (relative stereo) [Example 22, cis-3-((3,5-Bis(trifluoromethyl)phenyl)methyloxy)-2-(3-chlorophenyl)piperidine hydrochloride salt] | –
10 | – | c1ccc(CO[C@H]2CCCN[C@H]2c2ccccc2)cc1 (relative stereo) [Example 34, cis-2-Phenyl-3-(phenylmethyloxy)piperidine oxalate salt] | inhibition at 1 µM (1 h, read-out: % @ 1 μM (in column IC50 @ NKIR)): 53%
11 | 6.82 | NC(=O)C(=O)N1CCC[C@H](OCc2cc(C(F)(F)F)cc(C(F)(F)F)c2)[C@@H]1c1ccccc1 (relative stereo) [Example 38] | –

Row | Structure (SMILES) | pIC50 (read-out: IC50 @ NKIR) | other results
12 | FC(F)(F)c1cc(CO[C@H]2CCCN[C@H]2c2ccccc2)cc(C(F)(F)F)c1 [Example 11, (-)-cis-3-((3,5-Bis(trifluoromethyl)phenyl)methyloxy)-2-phenyl piperidine hydrochloride salt] | 6.46 | –
